System: Aβ40
Assay: ELISA, binding of biotinylated-HN to immobilised Aβ40
Conditions: Aβ 100 nM on wells, biotinylated-HN 300 nM, increasing HS; three independent assays; Fig. 2B
Protocol: ELISAs were carried out as we previously reported. Nunc MaxiSorp 96‐well flat bottom plate (Thermo Fisher) wells were coated with samples as indicated. The plates were incubated overnight at 4 °C on a shaker to allow binding of the samples to the plate wells. After the incubation, the wells were washed 4× with TBST, filled with 400 µL blocking buffer (110 mM KCl, 5 mM NaHCO3, 5 mM MgCl2, 1 mM EGTA, 0.1 mM CaCl2, 20 mM HEPES, 1% BSA, pH 7.4), and incubated with shaking overnight at 4 °C. The wells were then washed 4× with TBST, and 100 µL of sample at the desired concentration was added to each well and incubated with shaking overnight at 4 °C. TBST was then used to wash the wells 4× before proceeding in one of two ways: (a) biotinylated samples were analyzed by adding 100 µL streptavidin–HRP conjugate in TBST (1 : 2500 dilution) to the samples followed by incubation for 3 h at RT on a shaker, or (b) samples without biotin were analyzed by adding 100 µL TBST containing the primary antibody as per the manufacturer's recommendation, incubating for 3 h at RT on a shaker, followed by washing the wells 4× with TBST. […] The reaction was stopped with 100 µL 2 M H2SO4 after incubating at RT for 0.5–15 min, resulting in a yellow color change, measured by absorbance at 450 nm. […] Statistical analysis was determined by the […] […] Data were expressed as the mean ± SD. […]

Substance: heparan sulfate [HS]
- effect of HS on binding of HN to Aβ40: No effects
